Patent US9314026B2, “Heterocyclylpyri(mi)dinylpyrazole” (Bayer Intellectual Property GmbH, priority 2011, dated 2016)
Where two headings read alike, the source gives them in different places.

What was measured:
Alternaria solani = assay: Alternaria test (tomato)/preventive; type: in vivo; details: 168 h, 500 ppm of active ingredient, preventive, evaluated 7 days after inoculation, read-out: efficacy
Procedure: Alternaria Test (Tomato)/Preventive Solvent: 49 parts by weight of N,N-Dimethylformamide Emulsifier: 1 part by weight of Alkylarylpolyglycolether To produce a suitable preparation of active compound, 1 part by weight of active compound is mixed with the stated amounts of solvent and emulsifier, and the concentrate is diluted with water to the desired concentration. To test for preventive activity, young plants are sprayed with the preparation of active compound at the stated rate of application. One day after this treatment, the plants are inoculated with an aqueous spore suspension of Alternaria solani. […] Then the plants are placed in an incubation cabinet at approximately 20° C. and a relative atmospheric humidity of 96%.

Sphaerotheca fuliginea = assay: Sphaerotheca test (cucumber)/preventive; type: in vivo; details: Podosphaera fuliginea, 168 h, 500 ppm of active ingredient, preventive, evaluated 7 days after inoculation, 0% = untreated control, 100% = no disease, read-out: efficacy
Procedure: (§1) Sphaerotheca Test (Cucumber)/Preventive Solvent: 49 parts by weight of N,N-Dimethylformamide Emulsifier: 1 part by weight of Alkylarylpolyglycolether To produce a suitable preparation of active compound, 1 part by weight of active compound is mixed with the stated amounts of solvent and emulsifier, and the concentrate is diluted with water to the desired concentration. To test for preventive activity, young plants are sprayed with the preparation of active compound at the stated rate of application. One day after this treatment, the plants are inoculated with an aqueous spore suspension of Sphaerotheca fuliginea.

Leptosphaeria nodorum = assay: Leptosphaeria test (wheat)/preventive; type: in vivo; details: Parastagonospora nodorum, 500 ppm of active ingredient, preventive, evaluated 7-9 days after inoculation, read-out: efficacy
Procedure: (§2) Leptosphaeria Test (Wheat)/Preventive Solvent: 49 parts by weight of N,N-Dimethylformamide Emulsifier: 1 part by weight of Alkylarylpolyglycolether To produce a suitable preparation of active compound, 1 part by weight of active compound is mixed with the stated amounts of solvent and emulsifier, and the concentrate is diluted with water to the desired concentration. To test for preventive activity, young plants are sprayed with a preparation of active compound at the stated rate of application. One day after this treatment, the plants are inoculated with an aqueous spore suspension of Leptosphaeria nodorum.

Pyrenophora teres = assay: Pyrenophora test (barley)/preventive; type: in vivo; details: 500 ppm of active ingredient, preventive, evaluated 7-9 days after inoculation, read-out: efficacy
Procedure: as §1, with “Pyrenophora” for “Sphaerotheca”, “(Barley)/Preventive” for “(Cucumber)/Preventive”, “Pyrenophora teres.” for “Sphaerotheca fuliginea.”

[1] = determination of the log P values by HPLC on a reverse phase column (C18), EEC-Directive 79/831 Annex V.A8; type: physicochemical
Procedure: Method A Note on the determination of the log P values and mass detection: The stated log P values were determined in accordance with EEC-Directive 79/831 Annex V.A8 by HPLC (High Performance Liquid Chromatography) on a reverse phase column (C18). […] The mass detection was effected with an […] system. Method B Note on the determination of the log P values and mass detection: The stated log P values were determined in accordance with EEC-Directive 79/831 Annex V.A8 by HPLC (High Performance Liquid Chromatography) on a reverse phase column (C18). […] The mass detection was effected with the Micronass ZQ2000 mass detector from Waters. Method C Note on the determination of the log P values and mass detection: The stated log P values were determined in accordance with EEC-Directive 79/831 Annex V.A8 by UPLC (Ultra Performance Liquid Chromatography) on a reverse phase column (C18). […] The mass detection was effected with the LCT Premier or SQD mass detector from Waters.

Pyricularia oryzae = assay: whole plant or invertebrate; type: in vivo; details: 168 h, read-out: efficacy
Puccinia recondita = assay: Puccinia test (wheat)/preventive; type: in vivo; details: 500 ppm of active ingredient, preventive, evaluated 7-9 days after inoculation, read-out: efficacy
Procedure: as §2, with “Puccinia Test (Wheat)/Preventive” for “Leptosphaeria Test (Wheat)/Preventive”, “sprayed with the preparation of” for “sprayed with a preparation of”, “suspension of Puccinia recondita.” for “suspension of Leptosphaeria nodorum.”

SMILES	chromatographic logP ([1]; pH 2.3)	chromatographic logP ([1]; pH 2.7)	also measured
CC(C)CC(=O)N(C(=O)CC(C)C)c1cc(-c2c(-c3ccc(F)cc3)nn3c2CCOC3C)ccn1 (stereo not drawn) [Example 13, N-{4-[2-(4-fluorophenyl)-7-methyl-4,5-dihydropyrazolo[1,5-c][1,3]oxazin-3-yl]pyridin-2-yl}-3-methyl-N-(3-methylbutanoyl)butanamide]	–	–	pest or weed control at 500 ppm (Alternaria solani): 78%; pest or weed control at 500 ppm (Sphaerotheca fuliginea): 93%; pest or weed control at 500 ppm (Leptosphaeria nodorum): 89%; pest or weed control at 500 ppm (Pyrenophora teres): 89%; chromatographic logP [1]: 5.01
O=C(C1CC1)N(C(=O)C1CC1)c1cc(-c2c(-c3ccc(F)cc3)nn3c2CCC3)ccn1 [Example 12, N-(cyclopropylcarbonyl)-N-{4-[2-(4-fluorophenyl)-5,6-dihydro-4H-pyrrolo[1,2-b]pyrazol-3-yl]pyridin-2-yl}cyclopropanecarboxamide]	–	–	pest or weed control at 500 ppm (Alternaria solani): 80%; pest or weed control at 500 ppm (Pyricularia oryzae): 80%; pest or weed control at 500 ppm (Sphaerotheca fuliginea): 100%; pest or weed control at 500 ppm (Leptosphaeria nodorum): 95%; pest or weed control at 500 ppm (Puccinia recondita): 95%; pest or weed control at 500 ppm (Pyrenophora teres): 95%; chromatographic logP [1]: 2.91
CCC(=O)Nc1cc(-c2c(-c3ccc(F)c(F)c3)nn3c2CCC3)ccn1 [[XI-10], N-{4-[2-(3,4-difluorophenyl)-5,6-dihydro-4H-pyrrolo[1,2-b]pyrazol-3-yl]pyridin-2-yl}propanamide]	1.93	–	–
OCCCc1cc(-c2ccc(F)c(F)c2)n[nH]1 [[XIV-2], 3-[3-(3,4-difluorophenyl)-1H-pyrazol-5-yl]propan-1-ol]	1.73	1.73	–
CCC(C)C(=O)Nc1cc(-c2c(-c3ccc(F)cc3)nn3c2CCC3)ccn1 (stereo not drawn) [[XI-17], N-{4-[2-(4-fluorophenyl)-5,6-dihydro-4H-pyrrolo[1,2-b]pyrazol-3-yl]pyridin-2-yl}-2-methylbutanamide]	2.23	–	–
O=C(Nc1cc(-c2c(-c3ccc(F)cc3)nn3c2CCC3)ccn1)C1CC1 [[XI-4], N-{4-[2-(4-fluorophenyl)-5,6-dihydro-4H-pyrrolo[1,2-b]pyrazol-3-yl]pyridin-2-yl}cyclopropanecarboxamide]	1.73	–	–
CC1(C)OB(c2c(-c3ccc(F)c(Cl)c3)nn3c2CCC3)OC1(C)C [[III-3], 2-(3-chloro-4-fluorophenyl)-3-(4,4,5,5-tetramethyl-1,3,2-dioxaborolan-2-yl)-5,6-dihydro-4H-pyrrolo[1,2-b]pyrazole]	–	4.73	–
CC(C)CC(=O)Nc1cc(-c2c(-c3ccc(F)cc3)nn3c2CCC3)ccn1 [[XI-15], N-{4-[2-(4-fluorophenyl)-5,6-dihydro-4H-pyrrolo[1,2-b]pyrazol-3-yl]pyridin-2-yl}-3-methylbutanamide]	2.2	–	–
OCCCc1cc(-c2ccc(F)c(Cl)c2)n[nH]1 [[XIV-3], 3-[3-(3-chloro-4-fluorophenyl)-1H-pyrazol-5-yl]propan-1-ol]	1.97	1.96	–
OCCCCc1cc(-c2ccc(F)cc2)n[nH]1 [[XIV-4], 4-[3-(4-fluorophenyl)-1H-pyrazol-5-yl]butan-1-ol]	1.72	1.72	–
CC(C)C(=O)Nc1cc(-c2c(-c3ccc(F)cc3)nn3c2CCC3)ccn1 [[XI-8], N-{4-[2-(4-fluorophenyl)-5,6-dihydro-4H-pyrrolo[1,2-b]pyrazol-3-yl]pyridin-2-yl}-2-methylpropanamide]	1.97	–	–
CC1(C)OB(c2c(-c3ccc(F)c(F)c3)nn3c2CCC3)OC1(C)C [[III-2], 2-(3,4-difluorophenyl)-3-(4,4,5,5-tetramethyl-1,3,2-dioxaborolan-2-yl)-5,6-dihydro-4H-pyrrolo[1,2-b]pyrazole]	–	4.3	–
CCC(=O)N(C(=O)CC)c1cc(-c2c(-c3ccc(F)cc3)nn3c2CCC3C)ccn1 (stereo not drawn) [Example 16, N-{4-[2-(4-fluorophenyl)-6-methyl-5,6-dihydro-4H-pyrrolo[1,2-b]pyrazol-3-yl]pyridin-2-yl}-N-propionylpropanamide]	–	–	chromatographic logP [1]: 3.21
O=C(CCc1ccccc1)Nc1cc(-c2c(-c3ccc(F)cc3)nn3c2CCC3)ccn1 [[XI-28], N-{4-[2-(4-fluorophenyl)-5,6-dihydro-4H-pyrrolo[1,2-b]pyrazol-3-yl]pyridin-2-yl}-3-phenylpropanamide]	2.62	–	–
COCC(=O)Nc1cc(-c2c(-c3ccccc3)nn3c2C(C)CC3)ccn1 (stereo not drawn) [[XI-5], 2-methoxy-N-[4-(4-methyl-2-phenyl-5,6-dihydro-4H-pyrrolo[1,2-b]pyrazol-3-yl)pyridin-2-yl]acetamide]	2.22	–	–
COC(=O)N(C(=O)C1CC1)c1cc(-c2c(-c3ccc(F)cc3)nn3c2CCC3)ccn1 [Example 15, methyl (cyclopropylcarbonyl){4-[2-(4-fluorophenyl)-5,6-dihydro-4H-pyrrolo[1,2-b]pyrazol-3-yl]pyridin-2-yl}carbamate]	–	–	chromatographic logP [1]: 2.54
CCC1CCc2c(-c3ccnc(NC(C)=O)c3)c(-c3ccc(F)cc3)nn21 (stereo not drawn) [[XI-6], N-{4-[6-ethyl-2-(4-fluorophenyl)-5,6-dihydro-4H-pyrrolo[1,2-b]pyrazol-3-yl]pyridin-2-yl}acetamide]	1.96	–	–
COCC(=O)Nc1cc(-c2c(-c3ccc(F)cc3)nn3c2CC(C)C3)ccn1 (stereo not drawn) [[XI-18], N-{4-[2-(4-fluorophenyl)-5-methyl-5,6-dihydro-4H-pyrrolo[1,2-b]pyrazol-3-yl]pyridin-2-yl}-2-methoxyacetamide]	2.3	–	–
O=C(CCCCO)CC(=O)c1ccc(F)cc1 [[XIII-4], 1-(4-fluorophenyl)-7-hydroxyheptane-1,3-dione]	–	2.3	–
CCC(=O)N(C(=O)CC)c1cc(-c2c(-c3ccc(F)cc3)nn3c2CCCC3)ccn1 [Example 18, N-{4-[2-(4-fluorophenyl)-4,5,6,7-tetrahydropyrazolo[1,5-a]pyridin-3-yl]pyridin-2-yl}-N-propionylpropanamide]	–	–	chromatographic logP [1]: 3.18
O=C(Nc1cc(-c2c(-c3ccc(F)cc3)nn3c2CCC3)ccn1)C1CCC1 [[XI-14], N-{4-[2-(4-fluorophenyl)-5,6-dihydro-4H-pyrrolo[1,2-b]pyrazol-3-yl]pyridin-2-yl}cyclobutanecarboxamide]	2.08	–	–
O=C(C1CC1)N(C(=O)C1CC1)c1cc(-c2c(-c3ccc(F)cc3)nn3c2CCCC3)ccn1 [Example 14, N-(cyclopropylcarbonyl)-N-{4-[2-(4-fluorophenyl)-4,5,6,7-tetrahydropyrazolo[1,5-a]pyridin-3-yl]pyridin-2-yl}cyclopropanecarboxamide]	–	3.28	LogPA ([1]; Method A (HPLC, C18, acetonitrile/water with formic acid), compounds of the type [I]): 3.28
